Test results published in BindingDB's records for doi:10.7270/Q2WS8WDS (n/a, 1995).

Target: T1, Protein kinase C zeta type (Rattus norvegicus, UniProt P09217)
T1 sequence (P09217 whole entry): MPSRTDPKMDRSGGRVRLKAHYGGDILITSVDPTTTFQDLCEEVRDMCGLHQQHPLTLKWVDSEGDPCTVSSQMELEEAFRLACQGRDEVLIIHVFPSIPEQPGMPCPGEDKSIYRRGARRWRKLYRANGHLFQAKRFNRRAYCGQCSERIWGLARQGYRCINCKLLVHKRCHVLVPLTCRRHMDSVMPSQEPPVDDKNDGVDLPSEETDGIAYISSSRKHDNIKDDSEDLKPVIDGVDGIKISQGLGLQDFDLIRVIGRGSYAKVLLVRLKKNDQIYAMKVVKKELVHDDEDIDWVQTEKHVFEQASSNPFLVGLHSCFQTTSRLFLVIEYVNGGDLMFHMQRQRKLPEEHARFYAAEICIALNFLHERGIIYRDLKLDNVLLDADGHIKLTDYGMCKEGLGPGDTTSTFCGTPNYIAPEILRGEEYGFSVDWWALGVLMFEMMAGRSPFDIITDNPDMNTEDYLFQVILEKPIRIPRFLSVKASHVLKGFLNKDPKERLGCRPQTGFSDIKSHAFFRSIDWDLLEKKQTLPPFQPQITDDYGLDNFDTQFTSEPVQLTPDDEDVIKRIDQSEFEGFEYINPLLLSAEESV
Test: Inhibition of Protein kinase C isolated from rat brain

Row | IC50 | Compound
1 | 22.2 µM | CCCCCCCCCCC#Cc1cccc([C@@H](O)[C@@H](N)CO)c1
2 | 23.4 µM | CCCCCCCCCCCCC/C=C/[C@@H](O)[C@@H](N)CO [(E,2S,3R)-2-azanyloctadec-4-ene-1,3-diol]
